Measured values taken from patent US10820591B2, “Substituted sulfonyl amides for controlling animal pests” (Bayer Aktiengesellschaft, priority 2016, dated 2020).

test system: Meloidogyne incognita; assay: Meloidogyne incognita test (sand, lettuce, gall formation); type: in vivo; conditions: Meloidogyne incognita, 336 h, 20 ppm, after 14 days; read-out: nematicidal efficacy (formation of galls)
Procedure, shortened: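 Gall counts on lettuce roots were scored after 14 days in sand inoculated with root-knot nematode eggs/larvae plus compound diluted in water. Values run from 0% (galls as in untreated plants) to 100% (gall-free).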

COc1cccc(S(=O)(=O)NC(=O)c2ncn(-c3ccccc3C(F)(F)F)c2Cl)c1 [I-429] and COc1ccc(S(=O)(=O)NC(=O)c2ncn(-c3ccccc3C(F)(F)F)c2Cl)cc1 [I-430] are the same in pest or weed control at 20 ppm: 90% for the first, 90% for the second.

O=C(NS(=O)(=O)c1ccc(Cl)cc1)c1ncn(-c2cccc(C(F)(F)F)c2)c1Cl [I-431] and COc1ccc(S(=O)(=O)NC(=O)c2ncn(-c3cccc(C(F)(F)F)c3)c2Cl)cc1 [I-437] are the same in pest or weed control at 20 ppm: 90% for the first, 90% for the second.

First: O=C(NS(=O)(=O)c1cccc(Cl)c1)c1ncn(-c2cccc(C(F)(F)F)c2)c1Cl [I-432]
Second: COc1cccc(S(=O)(=O)NC(=O)c2ncn(-c3cccc(C(F)(F)F)c3)c2Cl)c1 [I-436]
The pest or weed control at 20 ppm of the first is lower: 90% for the first, 100% for the second.

O=C(NS(=O)(=O)c1ccccc1Cl)c1ncn(-c2cccc(C(F)(F)F)c2)c1Cl [I-433] and COc1ccccc1S(=O)(=O)NC(=O)c1ncn(-c2cccc(C(F)(F)F)c2)c1Cl [I-435] are the same in pest or weed control at 20 ppm: 100% for the first, 100% for the second.

First: O=C(NS(=O)(=O)c1ccccc1)c1ncn(-c2cccc(C(F)(F)F)c2)c1Cl [I-434]
Second: COc1ccc(Cl)c(S(=O)(=O)NC(=O)c2ncn(-c3cccc(Cl)c3)c2C(F)F)c1 [I-480]
The pest or weed control at 20 ppm of the first is higher: 100% for the first, 90% for the second.

Going from COc1ccc(Cl)c(S(=O)(=O)NC(=O)c2cn(-c3cc(Cl)nc(Cl)c3)c(Cl)n2)c1 [I-439] to COc1ccc(Cl)c(S(=O)(=O)NC(=O)c2cn(-c3cc(Cl)cc(Cl)c3)c(Cl)n2)c1 [I-443], the pest or weed control at 20 ppm rises from 90% to 100%.

Compared with O=C(NS(=O)(=O)c1ccccc1Cl)c1nc(Br)n(CCC(F)(F)F)c1Cl [I-440], CSc1nc(C(=O)NS(=O)(=O)c2ccccc2Cl)c(Cl)n1CCC(F)(F)F [I-446] is lower in pest or weed control at 20 ppm: 100% for the first, 90% for the second.

COc1ccc(Cl)c(S(=O)(=O)NC(=O)c2cn(-c3cc(Cl)cc(Cl)c3)c(Br)n2)c1 [I-441] and COc1ccc(Cl)c(S(=O)(=O)NC(=O)c2nc(Br)n(-c3cc(Cl)cc(Cl)c3)c2Br)c1 [I-442] are the same in pest or weed control at 20 ppm: 100% for the first, 100% for the second.

First: O=C(NS(=O)(=O)c1ccccc1Cl)c1cn(-c2cc(Cl)cc(Cl)c2)c(Cl)n1 [I-444]
Second: O=C(NS(=O)(=O)c1ccccc1Cl)c1cc(-c2cc(Cl)cc(Cl)c2)n(CC(F)(F)F)n1 [I-447]
The pest or weed control at 20 ppm of the first is higher: 100% for the first, 90% for the second.

CSc1nc(C(=O)NS(=O)(=O)c2ccccc2Cl)cn1CCC(F)(F)F [I-445] and Cn1cc(C(=O)NS(=O)(=O)c2ccccc2Cl)nc1C(F)(F)F [I-472] are the same in pest or weed control at 20 ppm: 90% for the first, 90% for the second.

Compared with COc1ccc(Cl)c(S(=O)(=O)NC(=O)c2cc(-c3cc(Cl)cc(Cl)c3)n(CC(F)(F)F)n2)c1 [I-448], COc1ccc(Cl)c(S(=O)(=O)NC(=O)c2cn(C)c(C(F)(F)F)n2)c1 [I-475] is lower in pest or weed control at 20 ppm: 100% for the first, 90% for the second.

CCOc1ccc(Cl)c(S(=O)(=O)NC(=O)c2nc(Cl)n(CCC(F)(F)F)c2Cl)c1 [I-449] and CC(C)Oc1ccc(Cl)c(S(=O)(=O)NC(=O)c2nc(Cl)n(CCC(F)(F)F)c2Cl)c1 [I-450] are the same in pest or weed control at 20 ppm: 100% for the first, 100% for the second.

Going from O=C(NS(=O)(=O)c1c(Cl)cccc1Cl)c1nc(Cl)n(CCC(F)(F)F)c1Cl [I-451] to CSc1cccc(Cl)c1S(=O)(=O)NC(=O)c1nc(Cl)n(CCC(F)(F)F)c1Cl [I-453], the pest or weed control at 20 ppm rises from 90% to 100%.

Cc1ccccc1S(=O)(=O)NC(=O)c1nc(Cl)n(CCC(F)(F)F)c1Cl [I-452] and COc1ccc(Cl)cc1S(=O)(=O)NC(=O)c1nc(Cl)n(CCC(F)(F)F)c1Cl [I-454] are the same in pest or weed control at 20 ppm: 100% for the first, 100% for the second.

COc1ccc(Br)c(S(=O)(=O)NC(=O)c2nc(Cl)n(CCC(F)(F)F)c2Cl)c1 [I-455] and COc1ccc(F)c(S(=O)(=O)NC(=O)c2nc(Cl)n(CCC(F)(F)F)c2Cl)c1 [I-457] are the same in pest or weed control at 20 ppm: 100% for the first, 100% for the second.

O=C(NS(=O)(=O)c1cc(C(F)(F)F)ccc1Cl)c1nc(Cl)n(CCC(F)(F)F)c1Cl [I-458] and O=C(NS(=O)(=O)c1cc(C(F)(F)F)ccc1Cl)c1nc(Cl)n(C2CC2C(F)(F)F)c1Cl (stereo not drawn) [I-468] are the same in pest or weed control at 20 ppm: 100% for the first, 100% for the second.

CCOc1ccc(Cl)c(S(=O)(=O)NC(=O)c2nc(Cl)n(C3CC3C(F)(F)F)c2Cl)c1 (stereo not drawn) [I-459] and COc1ccc(Br)c(S(=O)(=O)NC(=O)c2nc(Cl)n(C3CC3C(F)(F)F)c2Cl)c1 (stereo not drawn) [I-465] are the same in pest or weed control at 20 ppm: 100% for the first, 100% for the second.

O=C(NS(=O)(=O)c1c(Cl)cccc1Cl)c1nc(Cl)n(C2CC2C(F)(F)F)c1Cl (stereo not drawn) [I-461] and CSc1cccc(Cl)c1S(=O)(=O)NC(=O)c1nc(Cl)n(C2CC2C(F)(F)F)c1Cl (stereo not drawn) [I-463] are the same in pest or weed control at 20 ppm: 100% for the first, 100% for the second.

Cc1ccccc1S(=O)(=O)NC(=O)c1nc(Cl)n(C2CC2C(F)(F)F)c1Cl (stereo not drawn) [I-462] and O=C(NS(=O)(=O)c1ccccc1Cl)c1nc(Cl)n(C2CC2C(F)(F)F)c1Cl (stereo not drawn) [I-469] are the same in pest or weed control at 20 ppm: 100% for the first, 100% for the second.

Going from COc1ccc(Cl)cc1S(=O)(=O)NC(=O)c1nc(Cl)n(C2CC2C(F)(F)F)c1Cl (stereo not drawn) [I-464] to COc1ccc(F)c(S(=O)(=O)NC(=O)c2nc(Cl)n(C3CC3C(F)(F)F)c2Cl)c1 (stereo not drawn) [I-467], the pest or weed control at 20 ppm rises from 90% to 100%.

CCc1ccc(C)c(S(=O)(=O)NC(=O)c2nc(Cl)n(C3CC3C(F)(F)F)c2Cl)c1 (stereo not drawn) [I-466] and Cc1ccccc1S(=O)(=O)NC(=O)c1cn(C)c(C(F)(F)F)n1 [I-474] are the same in pest or weed control at 20 ppm: 100% for the first, 100% for the second.

CC(C)S(=O)(=O)NC(=O)c1cn(C)c(C(F)(F)F)n1 [I-471] and Cn1cc(C(=O)NS(=O)(=O)c2ccccc2Br)nc1C(F)(F)F [I-473] are the same in pest or weed control at 20 ppm: 90% for the first, 90% for the second.

Compared with CC(C)Sc1nc(C(=O)NS(=O)(=O)c2ccccc2Cl)cn1C [I-476], Cc1ccccc1S(=O)(=O)NC(=O)c1cn(C)c(SC(C)C)n1 [I-477] is higher in pest or weed control at 20 ppm: 70% for the first, 90% for the second.

Going from COc1ccccc1S(=O)(=O)NC(=O)c1cn(C)c(SC(C)C)n1 [I-478] to COc1ccc(Cl)c(S(=O)(=O)NC(=O)c2ncn(-c3cccc(Cl)c3)c2C(C)C)c1 [I-488], the pest or weed control at 20 ppm rises from 70% to 90%.

COc1ccc(Cl)c(S(=O)(=O)NC(=O)c2ncn(-c3ccccc3Cl)c2C(F)F)c1 [I-479] and COc1ccc(Cl)c(S(=O)(=O)NC(=O)c2ncn(-c3ccc(Cl)cc3Cl)c2C(F)F)c1 [I-482] are the same in pest or weed control at 20 ppm: 90% for the first, 90% for the second.

Going from COc1ccc(Cl)c(S(=O)(=O)NC(=O)c2ncn(-c3ccc(Cl)cc3)c2C(F)F)c1 [I-481] to COc1ccc(Cl)c(S(=O)(=O)NC(=O)c2ncn(-c3c(F)cccc3F)c2C(F)F)c1 [I-487], the pest or weed control at 20 ppm rises from 70% to 100%.

COc1ccc(Cl)c(S(=O)(=O)NC(=O)c2ncn(-c3ccc(Cl)cc3Cl)c2C(C)C)c1 [I-484] and COc1ccc(Cl)c(S(=O)(=O)NC(=O)c2ncn(-c3ccc(Cl)cc3Cl)c2C2CC2)c1 [I-486] are the same in pest or weed control at 20 ppm: 70% for the first, 70% for the second.

COc1ccc(Cl)c(S(=O)(=O)NC(=O)c2ncn(-c3cccc(Cl)c3)c2C2CC2)c1 [I-485] and COc1ccc(Cl)c(S(=O)(=O)NC(=O)c2ncn(-c3ccccc3Cl)c2C2CC2)c1 [I-489] are the same in pest or weed control at 20 ppm: 90% for the first, 90% for the second.

COc1ccc(Cl)c(S(=O)(=O)NC(=O)c2ncn(-c3cc(F)ccc3F)c2C2CC2)c1 [I-490] showed a pest or weed control at 20 ppm of 90%.
